Consider three substances from patent EP0464022B1, “INSULINOTROPIC HORMONE” (THE GENERAL HOSPITAL CORPORATION, priority 1989, dated 2000).

Data set [1] concerns Rat insulinoma cells of cell line RIN-38. Put plainly: mRNA levels by Northern hybridization in insulinoma cells. The class given is cell-based. The note with it: peptide 10^-7M; 25 mM glucose.
Experimental: The cells were maintained in DMEM (Gibco) at a glucose concentration of 4,500 mg/L and supplemented with 10% heat-inactivated fetal bovine serum (Gibco), 100 U/ml of penicillin and 100 µg/ml of streptomycin. Incubations were carried out at 37°C in 95% air:5% CO2. Cells grown in the above manner were washed and resuspended in DMEM (Gibco) containing 0.1% bovine serum albumin and 25 mM glucose. […] In all cases, the concentration of peptides was 10^-7M. Incubations were for six hours.
Messenger RNAs specific for insulin, actin, or angiotensinogen were identified by Northern hybridization as follows: cellular RNA was extracted from solid tumors and cells by homogenization in guanidine thiocyanate and sedimentation through a cesium chloride cushion. Poly A^+ RNA was isolated by oligo dT cellulose chromatography (Aviv, H., et al., Proc. Natl. Acad. Sci., USA 69:1408-1412 (1972)). Twenty micrograms of total RNA from each sample were fractionated by size on a 1.4% agarose gel after denaturation in glyoxal, followed by electrotransfer to a nylon membrane (Nytran; Schleicher and Schuell). […] The relative amounts of the specific mRNA were determined by microdensitometry.
Data set [2] has as its system RINS-38 insulinoma cells. Put plainly: Cellular cAMP levels (Table 2). The class given is cell-based, rat. The arrangement: cAMP: unit not given here. The note with it: for stimulation of cAMP levels: even at 10^-11M; for cAMP: 10 minutes. The method, then:
Cells were grown as described in Example 1, in […] culture dishes. Varying amounts of glucagon-like peptides were added to culture wells in triplicate. After permitting incubation for 10 minutes, the total cell media was examined for cAMP, and the concentration of cAMP was determined. Twenty microliters from each culture well was assayed.
A general note: cAMP levels reflect the balance of adenylyl cyclase and phosphodiesterase activity.

Data set [3] relates to insulinoma cell line RIN 1046-38. The data set is described as follows: cAMP formation in insulinoma cell line. The class given is cell-based, rat. The note with it: for effects on the formation of cAMP: 5 nM and 50 pM; for effect on cAMP levels: 0.5 µM.
Experimental: Cells were incubated for 10 minutes in the presence of 0, 10^-11, 10^-9, or 10^-7M peptides.
Data set [4] relates to rat pancreas. Put plainly: Pancreatic perfusion assay of insulinotropic activity (isolated perfused rat pancreas, insulin radioimmunoassay). The class given is in vivo.
Text: The insulinotropic property of a compound may be determined by providing that compound to animal cells, or injecting that compound into animals and monitoring the release of immunoreactive insulin (IRI) into the media or circulatory system of the animal, respectively. The presence of IRI is detected through the use of a radioimmunoassay which can specifically detect insulin. Although any radioimmunoassay capable of detecting the presence of IRI may be employed, It is preferable to use a modification of the assay method of Albano, J.D.M., et al., (Acta Endocrinol. 70:487-509 (1972)). In this modification, a phosphate/albumin buffer with a pH of 7.4 was employed. The incubation was prepared with the consecutive condition of 500 µl of phosphate buffer, 50 µl of perfusate sample or rat insulin standard in perfusate, 100 µl of anti-insulin antiserum (Wellcome Laboratories; 1:40,000 dilution), and 100 µl of [^125I] insulin, giving a total volume of 750 µl in a 10 x 75-mm disposable glass tube. After incubation for 2-3 days at 4°C, free insulin was separated from antibody-bound insulin by charcoal separation. The assay sensitivity was 1-2 µU/ml.
The insulinotropic property of a compound may also be determined by pancreatic infusion. The in situ isolated perfused rat pancreas preparation was a modification of the method of Penhos, J.C., et al. (Diabetes 18:733-738 (1969)). In accordance with such a method, fasted rats (preferably male Charles River strain albino rats), weighing 350-600 g, are anesthetized with an intraperitoneal injection of Amytal Sodium (Eli Lilly and Co., 160 ng/kg). Renal, adrenal, gastric, and lower colonic blood vessels are ligated. The entire intestine is resected except for about four cm of duodenum and the descending colon and rectum. […] The perfusate is preferably a modified Krebs-Ringer bicarbonate buffer with 4% dextran T70 and 0.2% bovine serum albumin (fraction V), and is preferably bubbled with 95% O2 and 5% CO2. A nonpulsatile flow, four-channel roller-bearing pump (Buchler polystatic, Buchler Instruments Division, Nuclear-Chicago Corp.) is preferably used, and a switch from one perfusate source to another is preferably accomplished by switching a three-way stopcock.
Isolated rat pancreas was prepared according to the method of Weir, G.C., et al., (J. Clin. Invest. 54:1403-1412 (1974)), and Penkos, J.C., et al. (Diabetes 18:733-738 (1969)). The perfusate contained bicarbonate buffer (pH 7.4) and 120 mg/dl glucose, 4% dextran T-70, and 0.2% bovine serum albumin, and was equilibrated with 95% oxygen and 5% carbon dioxide. The first 20 minutes of each perfusion was an equilibrium period. After this initial period, aliquots of perfusate were removed every 2-4 min for additional 20 min, thus allowing the system to equilibrate for a total of 40 min. The perfusion, including any added insulinotropic peptide, was for 6 min and samples were collected at 1-min intervals. When more than one perfusion was to be performed, the peptide perfusions were followed by equilibration periods of 20 min, during which four samples 5 min apart were collected. […] Again, samples 1 min apart were collected. The entire perfusion time was between 70 and 85 mm.
In each aliquot of perfusate obtained, insulin was determined by radioimmunoassay.
Data set [5] in a line: Biological half-life.
Data set [6] is described as follows: Stability in culture medium (HPLC and radioimmunoassay). The class given is in vitro ADME. The note with it: 24 hr; conditioned medium containing 01% bovine serum albumin. As to the method: To assess the stability of the […] peptide in the experimental conditions, GLP-1 (1-37) was incubated for 24 hr in culture medium alone or in medium supplemented with either 0.1% bovine serum albumin or 10% fetal bovine serum. Aliquots of media were analyzed by high-pressure liquid chromatography and radioimmunoassay.

For “GLP-II: glucagon-like peptide 2 (GLP-2) (HADGSFSDEMNTILDNLAARDFINWLIQTKITD; Glucagon-like peptide 2; UniProt P01275 146-178, looked up)”, the “effect on insulin mRNA levels” value in data set [1] was “no effects”. The “stimulation of cAMP levels” value in data set [2] is reported as “neither GLP-1 (1-37) nor GLP-II exhibited such activity”.

On to “GLP-1 (1-37): GLP-1 polypeptide having all amino acids from 1 (N-terminus) through 37 (C-terminus)”, for which the “stimulation of cAMP levels” value in data set [2] was “neither GLP-1 (1-37) nor GLP-II exhibited such activity”. Besides, the cAMP in data set [2] (peptide 10^-6 M) amounted to 170; in data set [2] (peptide 10^-7 M) it was 120; in data set [2] (peptide 10^-8 M), 160; in data set [2] (peptide 10^-9 M), 100; in data set [2] (peptide 10^-10 M) it was 90; in data set [2] (peptide 10^-11 M), 90. Besides, the “effects on the formation of cAMP” value in data set [3] is recorded as “negligible”. Also, the “effect on cAMP levels” value in data set [3] is given as “increased cAMP levels”. Also, the “increase in serum insulin concentrations” value in data set [4] (5 x 10^-7M) was found to be 3.4 fold. The “Insulin Produced” value is recorded as 1,400 picograms/ml in data set [4] (5x10^-7M, 0 minutes (before peptide added)); 4,700 picograms/ml in data set [4] (5x10^-7M, 1 minute); 2,900 picograms/ml in data set [4] (5x10^-7M, 2 minutes); 2,200 picograms/ml in data set [4] (5x10^-7M, 3 minutes); 3,000 picograms/ml in data set [4] (5x10^-8M, 0 minutes (before peptide added)); 6,000 picograms/ml in data set [4] (5x10^-8M, 1 minute). Besides, the “Insulin Produced” value was 2,000 picograms/ml in data set [4] (5x10^-8M, 2 minutes); 2,000 picograms/ml in data set [4] (5x10^-8M, 3 minutes); 500 picograms/ml in data set [4] (5x10^-10M, 0 minutes (before peptide added)); 600 picograms/ml in data set [4] (5x10^-10M, 1 minute); 640 picograms/ml in data set [4] (5x10^-10M, 2 minutes); 430 picograms/ml in data set [4] (5x10^-10M, 3 minutes). Besides, the “Insulin Produced” value stood at 340 picograms/ml in data set [4] (5x10^-11M, 0 minutes (before peptide added)); 180 picograms/ml in data set [4] (5x10^-11M, 1 minute); 230 picograms/ml in data set [4] (5x10^-11M, 2 minutes); 340 picograms/ml in data set [4] (5x10^-11M, 3 minutes); 50 picograms/ml in data set [4] (5x10^-12M, 0 minutes (before peptide added)); 50 picograms/ml in data set [4] (5x10^-12M, 1 minute). The “Insulin Produced” value in data set [4] (5x10^-12M, 2 minutes) is listed as 160 picograms/ml; in data set [4] (5x10^-12M, 3 minutes), 50 picograms/ml. For the same substance, the entries for the “increase in serum insulin levels” value in data set [4] (5 x 10^-8M) and in data set [4] (5 x 10^-10M) were “two-fold” and 20%, respectively. Further, the “effect on insulin levels” value in data set [4] (5 x 10^-11M) is “without effect”. In addition, the insulinotropic activity result in data set [4] (10^-11 M, five minute perfusion) was “inactive”. For the same substance, in data set [4] (even at concentrations as high as 5 X 10^-7M), the insulin-releasing activity result was “no insulin-releasing activity”. Besides, the biological half-life in data set [5] is given as 30-50 minutes. For the same substance, the “stability: cleavage after incubation” value in data set [6] is given as “a small peak of GLP-1 (7-37) appeared”.

As for “GLP-1-(1-36)-NH2: GLP-1 (1-36 des-gly-arg amide); Peninsula Laboratories”, in data set [3], the “effects on the formation of cAMP” value is “negligible” and the “effect on cAMP levels” value was “increased cAMP levels”.
